# Assay results reported in patent US20260042731A1, “(2,4-DICHLOROPHENOXY)ACETIC ACID ANALOGS” (CORTEVA AGRISCIENCE LLC, priority 2022, published 2026).
# Where two headings read alike, the source gives them in different places.
# What was measured:
# [1] = test system: Amaranthus rudis (AMATA), tall water hemp; experiment: Postemergence herbicide evaluation, growth of Amaranthus rudis (AMATA); assay type: in vivo; details: Amaranthus tuberculatus, post-emergence
# [2] = test system: Ambrosia artemisiifolia (AMBEL), common ragweed; experiment: Postemergence herbicide evaluation, growth of Ambrosia artemisiifolia (AMBEL); assay type: in vivo; details: Ambrosia artemisiifolia, post-emergence
# [3] = test system: Abutilon theophrasti (ABUTH), velvetleaf; experiment: Postemergence herbicide evaluation, growth of Abutilon theophrasti (ABUTH); assay type: in vivo; details: Abutilon theophrasti, post-emergence
# [4] = test system: Chenopodium album (CHEAL), common lambsquarters; experiment: Postemergence herbicide evaluation, growth of Chenopodium album (CHEAL); assay type: in vivo; details: Chenopodium album, post-emergence
# [5] = Volatility of compounds measured by thermogravimetric analysis (TGA); assay type: physicochemical
# [6] = test system: weeds ABUTH, AMATA, AMBEL, CHEAL, ERICA; experiment: Postemergence herbicide evaluation, overall average % weed control (ABUTH, AMATA, AMBEL, CHEAL, ERICA); assay type: in vivo; details: post-emergence, read-out: Overall Ave % Weed Control
# [7] = test system: glyphosate resistant Conyza canadensis (L.) (ERICA), horseweed; experiment: Postemergence herbicide evaluation, growth of Conyza canadensis (ERICA); assay type: in vivo; details: Erigeron canadensis, post-emergence, read-out: Ave. ERICA
# [8] = test system: weeds (ABUTH, AMATA, AMBEL, CHEAL, ERICA); experiment: Postemergence herbicide evaluation, overall average % weed control across ABUTH, AMATA, AMBEL, CHEAL, ERICA; assay type: in vivo; details: post-emergence, average over the five weeds, read-out: Overall Ave % Weed Control; for pest or weed control at 280 g/ha: 280 g ae/ha; for pest or weed control at 560 g/ha: 560 g ae/ha
# [9] = 168 h, read-out: Ave. AMATA, percent reduction in plant size relative to the untreated control
# [10] = 336 h, read-out: Ave. AMATA, percent reduction in plant size relative to the untreated control
# [11] = 504 h, read-out: Ave. AMATA, percent reduction in plant size relative to the untreated control
# [12] = 168 h, read-out: AVE. AMBEL, percent reduction in plant size relative to the untreated control
# [13] = 336 h, read-out: AVE. AMBEL, percent reduction in plant size relative to the untreated control
# [14] = 504 h, read-out: AVE. AMBEL, percent reduction in plant size relative to the untreated control
# [15] = 168 h, read-out: AVE. ABUTH, percent reduction in plant size relative to the untreated control
# [16] = 336 h, read-out: AVE. ABUTH, percent reduction in plant size relative to the untreated control
# [17] = 504 h, read-out: AVE. ABUTH, percent reduction in plant size relative to the untreated control
# [18] = 168 h, read-out: Ave. CHEAL, percent reduction in plant size relative to the untreated control
# [19] = 336 h, read-out: Ave. CHEAL, percent reduction in plant size relative to the untreated control
# [20] = 504 h, read-out: Ave. CHEAL, percent reduction in plant size relative to the untreated control
smiles,measurement,setting,value
"O=C(COc1ccc(Cl)cc1Cl)OCc1ccc(COC(=O)COc2ccc(Cl)cc2Cl)cc1 [Compound B1, 1,4-Phenylenebis(methylene) bis(2-(2,4-dichlorophenoxy)acetate)]",pest or weed control at 280 g/ha,[1]; [9],40%
same,pest or weed control at 560 g/ha,[1]; [9],40%
same,pest or weed control at 280 g/ha,[1]; [10],25%
same,pest or weed control at 560 g/ha,[1]; [10],35%
same,pest or weed control at 280 g/ha,[1]; [11],30%
same,pest or weed control at 560 g/ha,[1]; [11],48%
same,pest or weed control at 280 g/ha,[2]; [12],23%
same,pest or weed control at 560 g/ha,[2]; [12],20%
same,pest or weed control at 280 g/ha,[2]; [13],18%
same,pest or weed control at 560 g/ha,[2]; [13],18%
same,pest or weed control at 280 g/ha,[2]; [14],0%
same,pest or weed control at 560 g/ha,[2]; [14],5%
same,pest or weed control at 280 g/ha,[3]; [15],5%
same,pest or weed control at 560 g/ha,[3]; [15],13%
same,pest or weed control at 280 g/ha,[3]; [16],8%
same,pest or weed control at 560 g/ha,[3]; [16],5%
same,pest or weed control at 280 g/ha,[3]; [17],8%
same,pest or weed control at 560 g/ha,[3]; [17],3%
same,pest or weed control at 280 g/ha,[4]; [18],15%
same,pest or weed control at 560 g/ha,[4]; [18],55%
same,pest or weed control at 280 g/ha,[4]; [19],25%
same,pest or weed control at 560 g/ha,[4]; [19],53%
same,pest or weed control at 280 g/ha,[4]; [20],20%
same,pest or weed control at 560 g/ha,[4]; [20],33%
same,"TGA Data (rate of weight loss, volatility)",[5],0.03 µg/min
same,pest or weed control at 280 g/ha,[6]; 168 h,19%
same,pest or weed control at 560 g/ha,[6]; 168 h,31%
same,pest or weed control at 280 g/ha,[6]; 336 h,21%
same,pest or weed control at 560 g/ha,[6]; 336 h,29%
same,pest or weed control at 280 g/ha,[6]; 504 h,13%
same,pest or weed control at 560 g/ha,[6]; 504 h,21%
"O=C(COc1ccc(Cl)cc1Cl)OCCOCCOC(=O)COc1ccc(Cl)cc1Cl [Compound B2, Oxybis(ethane-2,1-diyl) bis(2-(2,4-dichlorophenoxy)acetate)]","TGA Data (rate of weight loss, volatility)",[5],0.04 µg/min
same,pest or weed control at 280 g/ha,[6]; 168 h,73%
same,pest or weed control at 560 g/ha,[6]; 168 h,75%
same,pest or weed control at 280 g/ha,[6]; 336 h,83%
same,pest or weed control at 560 g/ha,[6]; 336 h,89%
same,pest or weed control at 560 g/ha,[6]; 504 h,94%
"O=C(COc1ccc(Cl)cc1Cl)OCOC(=O)c1ccccc1 [Compound E7, (2-(2,4-Dichlorophenoxy)acetoxy)methyl benzoate]",pest or weed control at 280 g/ha,"[1]; 168 h, read-out: Ave. AMATA",78%
same,pest or weed control at 560 g/ha,"[1]; 168 h, read-out: Ave. AMATA",80%
same,pest or weed control at 280 g/ha,"[1]; 336 h, read-out: Ave. AMATA",95%
same,pest or weed control at 560 g/ha,"[1]; 336 h, read-out: Ave. AMATA",85%
same,pest or weed control at 280 g/ha,"[1]; 504 h, read-out: Ave. AMATA",93%
same,pest or weed control at 560 g/ha,"[1]; 504 h, read-out: Ave. AMATA",89%
same,pest or weed control at 280 g/ha,"[2]; 168 h, read-out: AVE. AMBEL",63%
same,pest or weed control at 560 g/ha,"[2]; 168 h, read-out: AVE. AMBEL",78%
same,pest or weed control at 280 g/ha,"[2]; 336 h, read-out: AVE. AMBEL",93%
same,pest or weed control at 560 g/ha,"[2]; 336 h, read-out: AVE. AMBEL",97%
same,pest or weed control at 280 g/ha,"[2]; 504 h, read-out: AVE. AMBEL",96%
same,pest or weed control at 560 g/ha,"[2]; 504 h, read-out: AVE. AMBEL",100%
same,pest or weed control at 280 g/ha,"[3]; 168 h, read-out: AVE. ABUTH",80%
same,pest or weed control at 560 g/ha,"[3]; 168 h, read-out: AVE. ABUTH",85%
same,pest or weed control at 280 g/ha,"[3]; 336 h, read-out: AVE. ABUTH",84%
same,pest or weed control at 560 g/ha,"[3]; 336 h, read-out: AVE. ABUTH",89%
same,pest or weed control at 280 g/ha,"[3]; 504 h, read-out: AVE. ABUTH",90%
same,pest or weed control at 560 g/ha,"[3]; 504 h, read-out: AVE. ABUTH",92%
same,pest or weed control at 280 g/ha,"[4]; 168 h, read-out: Ave. CHEAL",68%
same,pest or weed control at 560 g/ha,"[4]; 168 h, read-out: Ave. CHEAL",75%
same,pest or weed control at 280 g/ha,"[4]; 336 h, read-out: Ave. CHEAL",73%
same,pest or weed control at 560 g/ha,"[4]; 336 h, read-out: Ave. CHEAL",93%
same,pest or weed control at 280 g/ha,"[4]; 504 h, read-out: Ave. CHEAL",70%
same,pest or weed control at 560 g/ha,"[4]; 504 h, read-out: Ave. CHEAL",70%
same,pest or weed control at 280 g/ha,[7]; 168 h,65%
same,pest or weed control at 560 g/ha,[7]; 168 h,70%
same,pest or weed control at 280 g/ha,[7]; 336 h,83%
same,pest or weed control at 560 g/ha,[7]; 336 h,88%
same,pest or weed control at 280 g/ha,[7]; 504 h,93%
same,pest or weed control at 560 g/ha,[7]; 504 h,95%
same,"TGA Data (rate of weight loss, volatility)",[5],1.5 µg/min
same,pest or weed control at 280 g/ha,"[8]; 168 h, 7 DAA",71%
same,pest or weed control at 560 g/ha,"[8]; 168 h, 7 DAA",78%
same,pest or weed control at 280 g/ha,"[8]; 336 h, 14 DAA",85%
same,pest or weed control at 560 g/ha,"[8]; 336 h, 14 DAA",90%
same,pest or weed control at 280 g/ha,"[8]; 504 h, 21 DAA",88%
same,pest or weed control at 560 g/ha,"[8]; 504 h, 21 DAA",89%
